# From US11331271B2, “Buccal, sublingual and intranasal delivery of fospropofol” (The Johns Hopkins University, priority 2016, dated 2022)
# Experiments:
# [1] = Intranasal fospropofol in rats: plasma and brain levels; assay type: in vivo, rat
# [2] = test system: healthy volunteers; assay: Human Study 2: treatment-emergent adverse events (TEAE), safety, Modified OAA/S, DSST, BIS; assay type: in vivo; details: for DSST mean change from baseline: 1 h post-treatment
# Experimental: In human study 1, fospropofol disodium was formulated as a sterile aqueous solution at a concentration of 20 mg/mL. Each vial provided contained 20 mL of solution, suitable for intravenous injection. Fospropofol was administered as a single dose of 400 mg orally, directly into the duodenum by gastroscopy or intravenously over 10 min. In human study 2, fospropofol disodium in capsules (200 mg) or matching placebo was administered orally.
# A second single ascending dose study was subsequently performed to assess the safety, tolerability, and pharmacokinetics of oral administration of fospropofol as a capsule. This was a double-blind, randomized, crossover, placebo-controlled, single ascending dose study. Ten healthy volunteers were enrolled, 6 males and 4 females between 18 and 45 years of age inclusive with a body mass index between 18 and 28 kg/m^2. Each subject received four ascending oral doses of fospropofol disodium (200, 600, 1,000 and 1,200 mg) and one of placebo. Placebo was administered randomly, in one of the five periods. Subjects stayed in the clinical research unit over 3 days per treatment for five consecutive treatments. Between treatments, there were wash-out periods of at least 6 days, during which interim safety evaluations were made to assess the safety of the subsequent higher doses. Fopropofol disodium in capsules (200 mg) or matching placebo was administered orally. Pharmacokinetic parameters, safety and pharmacodynamic effect were assessed in a manner similar to that in Study 1 described above. In addition, the digit symbol substitution test (DSST) and BIS Index (a commercially available EEG derived measure of anesthesia and sedation, Coviden, Mansfield, Mass., USA) were added as additional pharmacodynamics measures.
# [3] = 200 mg oral, listed as Fospropofol
# [4] = 600 mg oral, listed as Fospropofol
smiles,measurement,setting,value
CC(C)c1cccc(C(C)C)c1OCOP(=O)(O)O [fospropofol],fospropofol in plasma after intranasal fospropofol,[1],appreciable plasma concentrations
same,BIS score range,[2]; 200 mg,80-98%
same,"TEAE EYE DISORDERS, subjects (%)",[2]; 200 mg oral,(10%)
same,"TEAE GASTROINTESTINAL DISORDERS, events (E)",[2]; 200 mg oral,2
same,"TEAE GASTROINTESTINAL DISORDERS, subjects (%)",[2]; 200 mg oral,(10%)
same,"TEAE GENERAL DISORDERS AND ADMINISTRATION SITE CONDITIONS, subjects (%)",[2]; 200 mg oral,(10%)
same,"TEAE INFECTIONS AND INFESTATIONS, subjects (%)",[2]; 200 mg oral,(10%)
same,"TEAE MUSCULOSKELETAL AND CONNECTIVE DISORDERS, subjects (%)",[2]; 200 mg oral,(10%)
same,"TEAE NERVOUS SYSTEM DISORDERS, events (E)",[2]; 200 mg oral,10
same,"TEAE NERVOUS SYSTEM DISORDERS, subjects (%)",[2]; 200 mg oral,(70%)
same,"TEAE RESPIRATORY THORACIC AND MEDIASTINAL DISORDERS, subjects (%)",[2]; 200 mg oral,(10%)
same,"TEAE TOTAL, events (E)",[2]; 200 mg oral,18
same,"TEAE TOTAL, subjects (%)",[2]; 200 mg oral,80%
same,"TEAE VASCULAR DISORDERS, subjects (%)",[2]; 200 mg oral,(10%)
same,"TEAE abdominal pain, subjects (%)",[2]; 200 mg oral,(10%)
same,"TEAE eye irritation, subjects (%)",[2]; 200 mg oral,(10%)
same,"TEAE feeling hot, subjects (%)",[2]; 200 mg oral,(10%)
same,"TEAE nausea, subjects (%)",[2]; 200 mg oral,(10%)
same,"TEAE paraesthesia oral, subjects (%)",[2]; 200 mg oral,(30%)
same,"TEAE paraesthesia, events (E)",[2]; 200 mg oral,3
same,"TEAE paraesthesia, subjects (%)",[2]; 200 mg oral,(20%)
same,"TEAE pharyngolaryngeal pain, subjects (%)",[2]; 200 mg oral,(10%)
same,"TEAE rhinitis, subjects (%)",[2]; 200 mg oral,(10%)
same,"TEAE sensation of heaviness, subjects (%)",[2]; 200 mg oral,(10%)
same,"TEAE somnolence, subjects (%)",[2]; 200 mg oral,40%
same,"TEAE vein pain, subjects (%)",[2]; 200 mg oral,(10%)
same,"TEAE TOTAL, subjects (%)",[2]; [3],(80%)
same,"TEAE somnolence, subjects (%)",[2]; [3],(10%)
same,DSST mean change from baseline,[2]; 200 mg,6
same,BIS score range,[2]; 600 mg,71-98%
same,"TEAE GASTROINTESTINAL DISORDERS, events (E)",[2]; 600 mg oral,4
same,"TEAE GASTROINTESTINAL DISORDERS, subjects (%)",[2]; 600 mg oral,(30%)
same,"TEAE GENERAL DISORDERS AND ADMINISTRATION SITE CONDITIONS, events (E)",[2]; 600 mg oral,5
same,"TEAE GENERAL DISORDERS AND ADMINISTRATION SITE CONDITIONS, subjects (%)",[2]; 600 mg oral,(40%)
same,"TEAE NERVOUS SYSTEM DISORDERS, events (E)",[2]; 600 mg oral,16
same,"TEAE NERVOUS SYSTEM DISORDERS, subjects (%)",[2]; 600 mg oral,(70%)
same,"TEAE PSYCHIATRIC DISORDERS, subjects (%)",[2]; 600 mg oral,(10%)
same,"TEAE REPRODUCTIVE SYSTEM AND BREAST DISORDERS, subjects (%)",[2]; 600 mg oral,(10%)
same,"TEAE RESPIRATORY THORACIC AND MEDIASTINAL DISORDERS, subjects (%)",[2]; 600 mg oral,(10%)
same,"TEAE TOTAL, events (E)",[2]; 600 mg oral,29
same,"TEAE TOTAL, subjects (%)",[2]; 600 mg oral,90%
same,"TEAE VASCULAR DISORDERS, subjects (%)",[2]; 600 mg oral,(10%)
same,"TEAE abdominal pain, subjects (%)",[2]; 600 mg oral,(10%)
same,"TEAE bowel sounds abnormal, subjects (%)",[2]; 600 mg oral,(10%)
same,"TEAE dizziness, subjects (%)",[2]; 600 mg oral,(20%)
same,"TEAE dysgeusia, subjects (%)",[2]; 600 mg oral,(10%)
same,"TEAE euphoric mood, subjects (%)",[2]; 600 mg oral,(10%)
same,"TEAE fatigue, subjects (%)",[2]; 600 mg oral,(20%)
same,"TEAE feeling hot, subjects (%)",[2]; 600 mg oral,(30%)
same,"TEAE headache, events (E)",[2]; 600 mg oral,3
same,"TEAE headache, subjects (%)",[2]; 600 mg oral,(20%)
same,"TEAE nausea, subjects (%)",[2]; 600 mg oral,(10%)
same,"TEAE paraesthesia, subjects (%)",[2]; 600 mg oral,(50%)
same,"TEAE perineal pain, subjects (%)",[2]; 600 mg oral,(10%)
same,"TEAE pharyngolaryngeal pain, subjects (%)",[2]; 600 mg oral,(10%)
same,"TEAE phlebitis superficial, subjects (%)",[2]; 600 mg oral,(10%)
same,"TEAE proctalgia, subjects (%)",[2]; 600 mg oral,(10%)
same,"TEAE somnolence, subjects (%)",[2]; 600 mg oral,50%
same,"TEAE TOTAL, subjects (%)",[2]; [4],(90%)
same,"TEAE somnolence, subjects (%)",[2]; [4],(50%)
same,DSST mean change from baseline,[2]; 600 mg,−5
same,BIS score range,"[2]; 1,000 mg",70-98%
same,"TEAE CARDIAC DISORDERS, subjects (%)",[2]; 1000 mg oral,(10%)
same,"TEAE GASTROINTESTINAL DISORDERS, subjects (%)",[2]; 1000 mg oral,(40%)
same,"TEAE GENERAL DISORDERS AND ADMINISTRATION SITE CONDITIONS, subjects (%)",[2]; 1000 mg oral,(30%)
